Assay results published in patent US9695154B2, “Heteroaryl inhibitors of sumo activating enzyme” (MILLENNIUM PHARMACEUTICALS, INC., priority 2013, dated 2017).

Molecular target: T1, recombinant human SAE enzyme (Homo sapiens, UniProt Q9UBT2)
T1 sequence (Q9UBT2 1-640): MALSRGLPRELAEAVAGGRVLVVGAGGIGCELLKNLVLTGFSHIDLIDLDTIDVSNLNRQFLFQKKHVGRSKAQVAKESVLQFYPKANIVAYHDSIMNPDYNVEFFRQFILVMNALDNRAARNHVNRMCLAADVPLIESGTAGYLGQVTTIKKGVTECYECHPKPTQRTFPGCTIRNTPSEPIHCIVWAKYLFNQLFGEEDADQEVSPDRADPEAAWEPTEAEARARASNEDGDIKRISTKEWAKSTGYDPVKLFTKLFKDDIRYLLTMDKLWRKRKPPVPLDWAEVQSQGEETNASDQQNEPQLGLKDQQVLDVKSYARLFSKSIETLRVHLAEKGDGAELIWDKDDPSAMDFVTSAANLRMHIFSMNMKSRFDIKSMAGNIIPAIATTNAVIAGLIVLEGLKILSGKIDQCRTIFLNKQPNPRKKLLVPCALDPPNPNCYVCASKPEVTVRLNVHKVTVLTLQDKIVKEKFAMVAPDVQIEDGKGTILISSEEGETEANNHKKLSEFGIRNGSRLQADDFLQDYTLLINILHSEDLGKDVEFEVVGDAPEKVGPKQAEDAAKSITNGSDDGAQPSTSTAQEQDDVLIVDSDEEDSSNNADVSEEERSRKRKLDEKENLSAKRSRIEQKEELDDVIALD
T1 sequence (Q9UBE0 1-346 partner): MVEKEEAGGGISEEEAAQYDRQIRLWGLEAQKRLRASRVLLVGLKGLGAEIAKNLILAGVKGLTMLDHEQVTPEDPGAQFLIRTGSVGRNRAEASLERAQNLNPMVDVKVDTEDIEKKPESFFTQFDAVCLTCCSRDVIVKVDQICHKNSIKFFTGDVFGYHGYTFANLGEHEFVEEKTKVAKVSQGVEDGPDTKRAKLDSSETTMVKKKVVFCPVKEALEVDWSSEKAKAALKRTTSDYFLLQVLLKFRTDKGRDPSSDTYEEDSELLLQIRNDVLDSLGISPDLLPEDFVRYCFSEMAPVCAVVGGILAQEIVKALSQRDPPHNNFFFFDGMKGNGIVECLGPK
Experiment: SAE HTRF Enzyme Assay
Format: biochemical
Settings: for IC50: class symbols A-C; for inhibition at 0.111 µM: compound concentration 0.111 μM, read-out: Percent Inhibition
How it was run: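 SAE 0.11 nM; ATP 0.5 μM; Sumo-Flag 0.125 μM; Ubc9-GST 0.01 μM; 250 μM GSH, 5 mM MgCl2, pH 7.5. 105 min, 24° C. EDTA/KF stop plus Eu/APC antibodies, 2 h, TR-FRET. % inhibition or IC50.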

NS(=O)(=O)OC[C@H]1C[C@@H](Nc2ncncc2C(=O)c2ccn(Cc3ccccc3C(F)(F)F)n2)[C@H](O)[C@@H]1O [Compound I-182, [(1R,2R,3S,4R)-2,3-dihydroxy-4-{[5-({1-[2-(trifluoromethyl)benzy1]-1H-pyrazol-3-yl}carbonyl)pyrimidin-4-yl]amino}cyclopentyl]methyl sulfamate]
IC50: < 10 nM | inhibition at 0.111 µM: 96%

NS(=O)(=O)OC[C@H]1C[C@@H](Nc2ncncc2C(=O)c2ccn(Cc3ccc(C(F)(F)F)s3)n2)C[C@@H]1O [Compound I-183, [(1R,2S,4R)-2-hydroxy-4-({5-[(1-{[5-(trifluoromethyl)-2-thienyl]methyl}-1H-pyrazol-3-yl)carbonyl]pyrimidin-4-yl}amino)cyclopentyl]methyl sulfamate]
IC50: < 10 nM | inhibition at 0.111 µM: 96%

NS(=O)(=O)OC[C@H]1C[C@@H](Nc2ncncc2C(=O)c2cc(Cl)n(Cc3cccc(C(F)(F)F)c3)c2)[C@@H](F)[C@@H]1O [Compound I-184, [(1R,2R,3R,4R)-4-{[5-({5-chloro-1-[3-(trifluoromethyl)benzyl]-1H-pyrrol-3-yl}carbonyl)pyrimidin-4-yl]amino}-3-fluoro-2-hydroxycyclopentyl]methyl sulfamate]
IC50: < 10 nM | inhibition at 0.111 µM: 97%

NS(=O)(=O)OC[C@H]1C[C@@H](Nc2ncncc2C(=O)c2ccn(Cc3ccc(F)cc3Cl)n2)C[C@@H]1O [Compound I-185, {(1R,2S,4R)-4-[(5-{[1-(2-chloro-4-fluorobenzyl)-1H-pyrazol-3-yl]carbonyl}pyrimidin-4-yl)amino]-2-hydroxycyclopentyl}methyl sulfamate]
IC50: < 10 nM | inhibition at 0.111 µM: 91%

Cc1cc(C(=O)c2cncnc2N[C@@H]2C[C@H](COS(N)(=O)=O)[C@@H](O)[C@@H]2F)nn1Cc1cccc(Br)c1 [Compound I-186, {(1R,2R,3R,4R)-4-[(5-{[1-(3-Bromobenzyl)-5-methyl-1H-pyrazol-3-yl]carbonyl}pyrimidin-4-yl)amino]-3-fluoro-2-hydroxycyclopentyl}methyl sulfamate]
IC50: < 10 nM | inhibition at 0.111 µM: > 99%

CCc1cc(C(=O)c2cncnc2N[C@@H]2C[C@H](COS(N)(=O)=O)[C@@H](O)[C@@H]2F)cn1Cc1cccc(Br)c1 [Compound I-187, {(1R,2R,3R,4R)-4-[(5-{[1-(3-Bromobenzyl)-5-ethyl-1H-pyrrol-3-yl]carbonyl}pyrimidin-4-yl)amino]-3-fluoro-2-hydroxycyclopentyl}methyl sulfamate]
IC50: < 10 nM | inhibition at 0.111 µM: 99%

COc1cccc(Cn2ccc(C(=O)c3cncnc3N[C@@H]3C[C@H](COS(N)(=O)=O)[C@@H](O)[C@@H]3F)c2)n1 [Compound I-188, [(1R,2R,3R,4R)-3-fluoro-2-hydroxy-4-{[5-({1-[(6-methoxypyridin-2-yl)methyl]-1H-pyrrol-3-yl}carbonyl)pyrimidin-4-yl]amino}cyclopentyl]methyl sulfamate]
IC50: < 10 nM | inhibition at 0.111 µM: 98%

NS(=O)(=O)OC[C@H]1C[C@@H](Nc2ncncc2C(=O)c2ccn(Cc3ccc(Cl)s3)c2)[C@@H](F)[C@@H]1O [Compound I-189, [(1R,2R,3R,4R)-4-{[5-({1-[(5-chloro-2-thienyl)methyl]-1H-pyrrol-3-yl}carbonyl)pyrimidin-4-yl]amino}-3-fluoro-2-hydroxycyclopentyl]methyl sulfamate]
IC50: < 10 nM | inhibition at 0.111 µM: 100%

NS(=O)(=O)OC[C@H]1C[C@@H](Nc2ncncc2C(=O)c2ccn(Cc3ccc(F)c(F)c3)n2)[C@@H](O)[C@@H]1O [Compound I-190, {(1R,2R,3R,4R)-4-[(5-{[1-(3,4-difluorobenzyl)-1H-pyrazol-3-yl]carbonyl}pyrimidin-4-yl)amino]-2,3-dihydroxycyclopentyl}methyl sulfamate]
IC50: < 10 nM | inhibition at 0.111 µM: 98%

NS(=O)(=O)OC[C@H]1C[C@@H](Nc2ncncc2C(=O)c2ccn(Cc3ccc(Cl)cc3F)n2)C[C@@H]1O [Compound I-191, {(1R,2S,4R)-4-[(5-{[1-(4-chloro-2-fluorobenzyl)-1H-pyrazol-3-yl]carbonyl}pyrimidin-4-yl)amino]-2-hydroxycyclopentyl}methyl sulfamate]
IC50: < 10 nM | inhibition at 0.111 µM: 92%

NS(=O)(=O)OC[C@H]1C[C@@H](Nc2ncncc2C(=O)c2ccn(Cc3ccccc3Cl)n2)[C@H](O)[C@@H]1O [Compound I-193, ((1R,2R,3S,4R)-4-((5-(1-(2-Chlorobenzyl)-1H-pyrazole-3-carbonyl)pyrimidin-4-yl)amino)-2,3-dihydroxycyclopentyl)methyl sulfamate]
IC50: < 10 nM | inhibition at 0.111 µM: 99%

NS(=O)(=O)OC[C@H]1C[C@@H](Nc2ncncc2C(=O)c2ccn(Cc3ccc(F)cc3Cl)n2)[C@H](O)[C@@H]1O [Compound I-194, {(1R,2R,3S,4R)-4-[(5-{[1-(2-chloro-4-fluorobenzyl)-1H-pyrazol-3-yl]carbonyl}pyrimidin-4-yl)amino]-2,3-dihydroxycyclopentyl}methyl sulfamate]
IC50: < 10 nM | inhibition at 0.111 µM: 100%

CC#CCn1ccc(C(=O)c2cncnc2N[C@@H]2C[C@H](COS(N)(=O)=O)[C@@H](O)[C@@H]2F)c1 [Compound I-195, {(1R,2R,3R,4R)-4-[(5-{[1-(but-2-yn-1-yl)-1H-pyrrol-3-yl]carbonyl}pyrimidin-4-yl)amino]-3-fluoro-2-hydroxycyclopentyl}methyl sulfamate]
IC50: 10 to 100 nM | inhibition at 0.111 µM: 90%

NS(=O)(=O)OC[C@H]1C[C@@H](Nc2ncncc2C(=O)c2ccn(C#Cc3ccccc3)c2)C[C@@H]1O [Compound I-196, {(1R,2S,4R)-2-Hydroxy-4-[(5-{[1-(phenylethynyl)-1H-pyrrol-3-yl]carbonyl}pyrimidin-4-yl)amino]cyclopentyl}methyl sulfamate]
IC50: 100 to 1000 nM | inhibition at 0.111 µM: 33%

Cc1cc(C(=O)c2cncnc2N[C@@H]2C[C@H](COS(N)(=O)=O)[C@@H](O)[C@@H]2F)nn1Cc1ccc(C(F)(F)F)o1 [Compound I-197, [(1R,2R,3R,4R)-3-Fluoro-2-hydroxy-4-({5-[(5-methyl-1-{[5-(trifluoromethyl)-2-furyl]methyl}-1H-pyrazol-3-yl)carbonyl]pyrimidin-4-yl}amino)cyclopentyl]methyl sulfamate]
IC50: < 10 nM | inhibition at 0.111 µM: 99%

Cc1ccc(Cn2ccc(C(=O)c3cncnc3N[C@@H]3C[C@H](COS(N)(=O)=O)[C@@H](O)[C@H]3O)n2)cc1F [Compound I-198, {(1R,2R,3S,4R)-4-[(5-{[1-(3-fluoro-4-methylbenzyl)-1H-pyrazol-3-yl]carbonyl}pyrimidin-4-yl)amino]-2,3-dihydroxycyclopentyl}methyl sulfamate]
IC50: < 10 nM | inhibition at 0.111 µM: > 99%

NS(=O)(=O)OC[C@H]1C[C@@H](Nc2ncncc2C(=O)c2ccn(CC#Cc3ccco3)n2)C[C@@H]1O [Compound I-199, [(1R,2S,4R)-4-{[5-({1-[3-(2-furyl)prop-2-yn-1-yl]-1H-pyrazol-3-yl}carbonyl)pyrimidin-4-yl]amino}-2-hydroxycyclopentyl]methyl sulfamate]
IC50: < 10 nM | inhibition at 0.111 µM: 94%

NS(=O)(=O)OC[C@H]1C[C@@H](Nc2ncncc2C(=O)c2ccn(/C=C\c3ccccc3)c2)C[C@@H]1O [Compound I-200, [(1R,2S,4R)-2-Hydroxy-4-{[5-({1-[(Z)-2-phenylvinyl]-1H-pyrrol-3-yl}carbonyl)pyrimidin-4-yl]amino}cyclopentyl]methyl sulfamate]
IC50: < 10 nM | inhibition at 0.111 µM: 98%
